Experimental data reported in paper PMC10254530, “Design and Synthesis of Brefeldin A-Isothiocyanate Derivatives with Selectivity and Their Potential for Cervical Cancer Therapy” (Molecules, 2023).
Counter-ions that a name gives are not always drawn.

Assays:
HepG2 cells = test: CCK-8 antiproliferative assay, HepG2; assay type: cell-based; settings: Homo sapiens, HepG2; CCK-8, 48 h, mean ± SD of three experiments; read-out: IC50 HepG2
Experimental: (§1) All cells were cultured in Dulbecco’s Modified Eagle’s Medium (DMEM) (Burlington, MA, USA) or Roswell Park Memorial Institute (RPMI)-1640 medium containing 10% fetal bovine serum and 1% penicillin/streptomycin in an incubator at 37 °C and 5% CO2. […] Cell suspension with a concentration of 8 × 10^4 cells/mL was prepared after cell counting. 100 μL cell suspension was added to each well of the 96-well plate and then placed in an incubator overnight. Most of the derivatives were configured into 80 mM, 20 mM or 4 mM stock solution in DMSO, and the stock solution concentration of BFA and paclitaxel was 0.4 mM. […] The medium in each well was discarded, and 100 μL of gradient diluted derivative solution was added (the control group was added with serum-free medium).

MDA-MB-231 cells = test: CCK-8 antiproliferative assay, MDA-MB-231; assay type: cell-based; settings: Homo sapiens, MDA-MB-231; CCK-8, 48 h, mean ± SD of three experiments; read-out: IC50 MDA-MB-231
Experimental: as §1

A375 cells = test: CCK-8 antiproliferative assay, A375; assay type: cell-based; settings: Homo sapiens, A-375; CCK-8, 48 h, mean ± SD of three experiments; read-out: IC50 A375
Experimental: as §1

A549 cells = test: CCK-8 antiproliferative assay, A549; assay type: cell-based; settings: Homo sapiens, A549; CCK-8, 48 h, mean ± SD of three experiments; read-out: IC50 A549
Experimental: as §1

HeLa cells = test: CCK-8 antiproliferative assay, HeLa; assay type: cell-based, human; settings: for IC50: Homo sapiens, HeLa, CCK-8, 48 h, mean ± SD of three experiments, read-out: IC50 HeLa; for SIHeLa, selectivity index between L-02 and HeLa: SI = IC50(L-02)/IC50(HeLa)
Experimental: as §1

L-02 cells = test: CCK-8 cytotoxicity assay, normal liver L-02; assay type: cell-based; settings: Homo sapiens, L02; CCK-8, 48 h, normal liver cells, mean ± SD of three experiments; read-out: IC50 L-02
Experimental: as §1

`C[C@H]1CCC/C=C/[C@@H]2C[C@H](OC(=O)CCC(=O)Oc3ccc(OC(=O)c4ccc(N=C=S)cc4)cc3)C[C@H]2[C@H](OC(=O)CCC(=O)Oc2ccc(OC(=O)c3ccc(N=C=S)cc3)cc2)/C=C/C(=O)O1` [Compound 8f, Bis(4-((4-isothiocyanatobenzoyl)oxy)phenyl) O,O’-((1R,2E,6S,10E,11aS,13S,14aR)-6-methyl-4-oxo-1,6,7,8,9,11a,12,13,14,14a-decahydro-4H-cyclopenta[f][1]oxacyclotridecine-1,13-diyl) disuccinate] showed an IC50 (HepG2 cells) of over 40 µM, an IC50 (MDA-MB-231 cells) of over 40 µM and an IC50 (A375 cells) of over 40 µM. The IC50 (A549 cells) was over 40 µM, the IC50 (HeLa cells) was over 40 µM and the IC50 (L-02 cells) was over 80 µM.
Work on `C[C@H]1CCC/C=C/[C@@H]2C[C@H](O)C[C@H]2[C@H](OC(=O)CCC(=O)Oc2ccc(OC(=O)c3ccc(N=C=S)cc3)cc2)/C=C/C(=O)O1` [Compound 9f, (1R,2E,6S,10E,11aS,13S,14aR)-13-Hydroxy-6-methyl-4-oxo-1,6,7,8,9,11a,12,13,14,14a-decahydro-4H-cyclopenta[f][1]oxacyclotridecin-1-yl (4-((4-isothiocyanatobenzoyl)oxy)phenyl) succinate] yielded an IC50 (HepG2 cells) of 27.7 ± 0.47 µM, an IC50 (MDA-MB-231 cells) of 32.1 ± 1.03 µM and an IC50 (A375 cells) of 21.3 ± 0.33 µM. For the same compound, the IC50 (A549 cells) was 16.18 ± 0.06 µM, the IC50 (HeLa cells) was 13.1 ± 0.45 µM and the “SIHeLa, selectivity index between L-02 and HeLa” value (HeLa cells) was 1.91. For the same compound, the IC50 (L-02 cells) was 25.1 ± 0.82 µM.
For `C[C@H]1CCC/C=C/[C@@H]2C[C@H](O)C[C@H]2[C@H](OC(=O)/C=C\C(=O)OCCCCCCOC(=O)c2ccc(N=C=S)cc2)/C=C/C(=O)O1` [Compound 9k, (1R,2E,6S,10E,11aS,13S,14aR)-13-Hydroxy-6-methyl-4-oxo-1,6,7,8,9,11a,12,13,14,14a-decahydro-4H-cyclopenta[f][1]oxacyclotridecin-1-yl (6-((4-isothiocyanatobenzoyl)oxy)hexyl) maleate], the IC50 (HepG2 cells) was 3.28 ± 0.27 µM, the IC50 (MDA-MB-231 cells) was 2.61 ± 0.08 µM and the IC50 (A375 cells) was 7.27 ± 0.57 µM. For the same compound, the IC50 (A549 cells) was 8.34 ± 0.24 µM, the IC50 (HeLa cells) was 2.39 ± 0.1 µM and the IC50 (L-02 cells) was 23.9 ± 1.23 µM.
Compound `C[C@H]1CCC/C=C/[C@@H]2C[C@H](O)C[C@H]2[C@H](OC(=O)/C=C\C(=O)OCC#CCOC(=O)c2ccc(N=C=S)cc2)/C=C/C(=O)O1` [Compound 9i, (1R,2E,6S,10E,11aS,13S,14aR)-13-Hydroxy-6-methyl-4-oxo-1,6,7,8,9,11a,12,13,14,14a-decahydro-4H-cyclopenta[f][1]oxacyclotridecin-1-yl (4-((4-isothiocyanatobenzoyl)oxy)but-2-yn-1-yl) maleate] has an IC50 (HepG2 cells) of 11.9 ± 0.32 µM, an IC50 (MDA-MB-231 cells) of 10 ± 0.26 µM and an IC50 (A375 cells) of 9.1 ± 0.46 µM. For the same compound, the IC50 (A549 cells) was 10.3 ± 0.35 µM, the IC50 (HeLa cells) was 6.59 ± 0.75 µM and the “SIHeLa, selectivity index between L-02 and HeLa” value (HeLa cells) was 4.27. For the same compound, the IC50 (L-02 cells) was 28.14 ± 0.14 µM.
Compound `C[C@H]1CCC/C=C/[C@@H]2C[C@H](OC(=O)/C=C\C(=O)OCCCCCCOC(=O)c3ccc(N=C=S)cc3)C[C@H]2[C@H](OC(=O)/C=C\C(=O)OCCCCCCOC(=O)c2ccc(N=C=S)cc2)/C=C/C(=O)O1` [Compound 8k, Bis(6-((4-isothiocyanatobenzoyl)oxy)hexyl) O,O’-((1R,2E,6S,10E,11aS,13S,14aR)-6-methyl-4-oxo-1,6,7,8,9,11a,12,13,14,14a-decahydro-4H-cyclopenta[f][1]oxacyclotridecine-1,13-diyl) dimaleate] has an IC50 (HepG2 cells) of over 40 µM, an IC50 (MDA-MB-231 cells) of over 40 µM and an IC50 (A375 cells) of over 40 µM. The IC50 (A549 cells) was over 40 µM, the IC50 (HeLa cells) was over 40 µM and the IC50 (L-02 cells) was over 80 µM.
`C[C@H]1CCC/C=C/[C@@H]2C[C@H](OC(=O)CCC(=O)OCCCCCCOC(=O)c3ccc(N=C=S)cc3)C[C@H]2[C@H](OC(=O)CCC(=O)OCCCCCCOC(=O)c2ccc(N=C=S)cc2)/C=C/C(=O)O1` [Compound 8e, Bis(6-((4-isothiocyanatobenzoyl)oxy)hexyl) O,O’-((1R,2E,6S,10E,11aS,13S,14aR)-6-methyl-4-oxo-1,6,7,8,9,11a,12,13,14,14a-decahydro-4H-cyclopenta[f][1]oxacyclotridecine-1,13-diyl) disuccinate] gave an IC50 (HepG2 cells) of over 40 µM, an IC50 (MDA-MB-231 cells) of over 40 µM and an IC50 (A375 cells) of over 40 µM. For the same compound, the IC50 (A549 cells) was over 40 µM, the IC50 (HeLa cells) was 26.8 ± 0.7 µM and the “SIHeLa, selectivity index between L-02 and HeLa” value (HeLa cells) was over 2.99. The IC50 (L-02 cells) was over 80 µM.
With `C[C@H]1CCC/C=C/[C@@H]2C[C@H](O)C[C@H]2[C@H](OC(=O)/C=C\C(=O)OCCOC(=O)c2ccc(N=C=S)cc2)/C=C/C(=O)O1` [Compound 9g, (1R,2E,6S,10E,11aS,13S,14aR)-13-Hydroxy-6-methyl-4-oxo-1,6,7,8,9,11a,12,13,14,14a-decahydro-4H-cyclopenta[f][1]oxacyclotridecin-1-yl (2-((4-isothiocyanatobenzoyl)oxy)ethyl) maleate] the IC50 (HepG2 cells) was 12.8 ± 0.15 µM, the IC50 (MDA-MB-231 cells) was 7.51 ± 0.07 µM and the IC50 (A375 cells) was 11.9 ± 0.54 µM. For the same compound, the IC50 (A549 cells) was 10.4 ± 0.59 µM, the IC50 (HeLa cells) was 3.63 ± 0.23 µM and the “SIHeLa, selectivity index between L-02 and HeLa” value (HeLa cells) was 5.75. For the same compound, the IC50 (L-02 cells) was 20.9 ± 0.49 µM.
`CC(=O)O[C@H]1C(=O)[C@@]2(C)[C@H]([C@H](OC(=O)c3ccccc3)[C@]3(O)C[C@H](OC(=O)[C@H](O)[C@@H](NC(=O)c4ccccc4)c4ccccc4)C(C)=C1C3(C)C)[C@]1(OC(C)=O)CO[C@@H]1C[C@@H]2O` [paclitaxel, reference compound] showed an IC50 (HepG2 cells) of 0.55 ± 0.03 µM, an IC50 (MDA-MB-231 cells) of 0.33 ± 0.03 µM and an IC50 (A375 cells) of 0.059 ± 0.001 µM. For the same compound, the IC50 (A549 cells) was 0.014 ± 0.002 µM, the IC50 (HeLa cells) was 0.034 ± 0.002 µM and the “SIHeLa, selectivity index between L-02 and HeLa” value (HeLa cells) was 3.82. It also gave an IC50 (L-02 cells) of 0.13 µM.
`C[C@H]1CCC/C=C/[C@@H]2C[C@H](O)C[C@H]2[C@H](O)/C=C/C(=O)O1` [BFA, Brefeldin A] gave an IC50 (HepG2 cells) of 0.12 ± 0.01 µM, an IC50 (MDA-MB-231 cells) of 0.054 ± 0.001 µM and an IC50 (A375 cells) of 0.039 ± 0.001 µM. The IC50 (A549 cells) was 0.056 ± 0.002 µM, the IC50 (HeLa cells) was 0.044 ± 0.004 µM and the “SIHeLa, selectivity index between L-02 and HeLa” value (HeLa cells) was 2.14. The IC50 (L-02 cells) was 0.094 ± 0.004 µM.
In the case of `C[C@H]1CCC/C=C/[C@@H]2C[C@H](OC(=O)CCC(=O)OCCOCCOC(=O)c3ccc(N=C=S)cc3)C[C@H]2[C@H](OC(=O)CCC(=O)OCCOCCOC(=O)c2ccc(N=C=S)cc2)/C=C/C(=O)O1` [Compound 8d, Bis(2-(2-((4-isothiocyanatobenzoyl)oxy)ethoxy)ethyl) O,O’-((1R,2E,6S,10E,11aS,13S,14aR)-6-methyl-4-oxo-1,6,7,8,9,11a,12,13,14,14a-decahydro-4H-cyclopenta[f][1]oxacyclotridecine-1,13-diyl) disuccinate], the IC50 (HepG2 cells) is reported as over 40 µM, the IC50 (MDA-MB-231 cells) is reported as over 40 µM and the IC50 (A375 cells) is reported as 22.8 ± 1.58 µM. It also gave an IC50 (A549 cells) of over 40 µM, an IC50 (HeLa cells) of 7.67 ± 0.33 µM and an IC50 (L-02 cells) of over 80 µM.
`C[C@H]1CCC/C=C/[C@@H]2C[C@H](OC(=O)/C=C\C(=O)OCCOCCOC(=O)c3ccc(N=C=S)cc3)C[C@H]2[C@H](OC(=O)/C=C\C(=O)OCCOCCOC(=O)c2ccc(N=C=S)cc2)/C=C/C(=O)O1` [Compound 8j, Bis(2-(2-((4-isothiocyanatobenzoyl)oxy)ethoxy)ethyl) O,O’-((1R,2E,6S,10E,11aS,13S,14aR)-6-methyl-4-oxo-1,6,7,8,9,11a,12,13,14,14a-decahydro-4H-cyclopenta[f][1]oxacyclotridecine-1,13-diyl) dimaleate] showed an IC50 (HepG2 cells) of over 40 µM, an IC50 (MDA-MB-231 cells) of over 40 µM and an IC50 (A375 cells) of over 40 µM. For the same compound, the IC50 (A549 cells) was 23.79 ± 0.02 µM, the IC50 (HeLa cells) was 30.6 ± 2.12 µM and the “SIHeLa, selectivity index between L-02 and HeLa” value (HeLa cells) was 0.70. For the same compound, the IC50 (L-02 cells) was 21.27 ± 0.16 µM.
